What follows are compounds tested on platelet aggregation (using platelet rich plasma (PRP)) (assay: Platelet Aggregation Assay (without esterase)). Details: human platelet rich plasma.
Assay type: cell-based
Experimental: (§1) Platelet Aggregation Assay: Venous blood was obtained from the arm of a healthy human donor who was drug-free and aspirin-free for at least two weeks prior to blood collection. Blood was collected into 10 mL citrated Vacutainer tubes. The blood was centrifuged for 15 minutes at 150×g at room temperature, and platelet-rich plasma (PRP) was removed. The remaining blood was centrifuged for 15 minutes at 1500×g at room temperature, and platelet-poor plasma (PPP) was removed. Samples were assayed on a aggregometer (PAP-4 Platelet Aggregation Profiler), using PPP as the blank (100% transmittance). 200 μL of PRP was added to each micro test tube, and transmittance was set to 0%. 20 μL of various agonists (ADP, collagen, arachidonate, epinephrine, thrombin) were added to each tube, and the aggregation profiles were plotted (% transmittance versus time). The results are expressed as % inhibition of agonist-inducedplatelet aggregation. For the IC50 evaluation, the test compounds were added at various concentrations prior to the activation of the platelets.
(§2) Table A below sets forth the antiplatelet activity of representative compounds of the present invention. The indicated compounds were tested for their ability to inhibit platelet aggregation (using platelet rich plasma (PRP)). The IC50 value (the concentration of antagonist which inhibits platelet aggregation by 50% relative to a control lacking the antagonist) is shown. In Table 5 the IC50 values are expressed as: +++=IC50 of <10 μM (μM=micromolar).
In the case of `Cc1noc(C)c1S(=O)(=O)N[C@@H](CNC(=O)C[C@@H]1C[C@H](c2ccc(C(=N)N)cc2)N(C)O1)C(=O)O` (relative stereo) [Example 38, Cis-3-[2-[2-methyl-3-[4-(aminoiminomethyl)phenyl]-isoxazolidin-5-yl]acetyl]amino-N-(3,5-dimethyloxazol-4-ylsulfonyl)-L-alanine monohydrogenchloride], the IC50 is reported as less than 10 µM. `Cc1cccc(S(=O)(=O)N[C@@H](CNC(=O)CC2CC(c3ccc(C(=N)N)cc3)N(C)O2)C(=O)O)c1` (stereo partly drawn) [Example 2, Cis-3-[2-[2-methyl-3-[4-(aminoiminomethyl)phenyl]-isoxazolidin-5-yl]acetyl]amino-N-(3-methylphenylsulfonyl)-L-alanine monohydrogenchloride] gave an IC50 of less than 10 µM. `Cc1cccc(S(=O)(=O)N[C@@H](CNC(=O)CC2CC(c3ccc(C(=N)N)cc3)N(Cc3ccccc3)O2)C(=O)O)c1` (stereo partly drawn) [Example 17, Cis-3-[2-[2-benzyl-3-[4-(aminoiminomethyl)phenyl]-isoxazolidin-5-yl]acetyl]amino-N-(3-methylphenylsulfonyl)-L-alanine monohydrogenchloride] gave an IC50 of less than 10 µM. Compound `Cc1cccc(S(=O)(=O)N[C@@H](CNC(=O)CC2CC(c3ccc(C(=N)N)cc3)N(C(C)C)O2)C(=O)O)c1` (stereo partly drawn) [Example 29, Cis-3-[2-[2-isopropyl-3-[4-(aminoiminomethyl)phenyl]-isoxazolidin-5-yl]acetyl]amino-N-(3-methylphenylsulfonyl)-L-alanine monohydrogenchloride] has an IC50 of less than 10 µM. `Cc1ccccc1S(=O)(=O)N[C@@H](CNC(=O)CC1CC(c2ccc(C(=N)N)cc2)N(C)O1)C(=O)O` (stereo partly drawn) [Example 33, Cis-3-[2-[2-methyl-3-[4-(aminoiminomethyl)phenyl]-isoxazolidin-5-yl]acetyl]amino-N-(2-methylphenylsulfonyl)-L-alanine monohydrogenchloride] was tested, and the IC50 was less than 10 µM. For `CCCCOC(=O)N[C@@H](CNC(=O)CC1CC(c2ccc(C(=N)N)cc2)N(C)O1)C(=O)O` (stereo partly drawn) [Example 69, Cis-3-[2-[2-methyl-3-[4-(aminoiminomethyl)phenyl]-isoxazolidin-5-yl]acetyl]amino-N-n-butyloxycarbonyl-L-alanine monohydrogenchloride], the IC50 was less than 10 µM. `Cc1cccc(S(=O)(=O)N[C@@H](CNC(=O)CC2CC(c3ccc(C(=N)N)cc3)N(c3ccccc3)O2)C(=O)O)c1` (stereo partly drawn) [Example 71, Cis-3-[2-[2-phenyl-[4-(aminoiminomethyl)phenyl]-isoxazolidin-5-yl]actetyl]amino-N-(3-methylphenylsulfonyl)-L-alanine monohydrogenchloride] was tested, and the IC50 was less than 10 µM. `Cc1cccc(S(=O)(=O)N[C@@H](CNC(=O)CC2CC(c3ccc(C(=N)N)cc3)N(C)C(=O)O2)C(=O)O)c1` (stereo partly drawn) [Example 301, Cis-3-[[[4-[4-(aminoiminomethyl)phenyl]tetrahydro-3-methyl-2-oxo-2H-1,3-oxazin-6-yl]acetyl]amino]-N-[(3-methylphenyl)sulfonyl]-L-alanine monohydrogenchloride] gave an IC50 of less than 10 µM.

These compounds were tested on platelet aggregation (using platelet rich plasma (PRP)) (assay: Platelet Aggregation Assay (with esterase; ester prodrugs preincubated with porcine liver esterase)). Details: human platelet rich plasma; preincubated with 100 IU/mL Porcine liver esterase 2 hours at 37° C.; 100 μM Adenosine Diphosphate.
Assay type: cell-based
Experimental: as §1
Ester prodrugs were preincubated (10^-3 M F.C.) with 100 IU/mL Porcine liver esterase (Sigma Chemical Co., St. Louis, Mo., #E-3128) for 2 hours at 37° C. Aliquots are then diluted in 0.1 M Tris, pH 7.4, to the desired concentrations. Aliquots of 20 μl of the esterase pretreated prodrugs are added to 200 μl of human platelet rich plasma. Samples were placed in platelet profiler (aggregometer) for 8 minutes at 37° C., followed by the addition of 100 μM Adenosine Diphosphate, (Sigma Chemical Co., St. Louis, Mo., #A-6521), to induce platelet aggregation. Platelet aggregation was allowed to proceed for 5 minutes. Percent inhibition is calculated using percent aggregation in the presence of the test compound divided by percent aggregation of control, times 100. This value is subtracted from 100, yielding percent inhibition. Calculation of IC50 is performed on a Texas Instruments TI59 with an IC50 program.
as §2
`COC(=O)[C@H](CNC(=O)C[C@@H]1CC(c2ccc(C(=N)N)cc2)N(Cc2ccccc2)O1)NS(=O)(=O)c1cccc(C)c1` (relative stereo) [Example 16, Cis-3-[2-[2-benzyl-3-[4-(aminoiminomethyl)phenyl]-isoxazolidin-5-yl]acetyl]-N-(3-methylphenylsulfonyl)-L-alanine methyl ester monotrifluoroacetic acid] gave an IC50 of less than 10 µM. In the case of `COC(=O)[C@H](CNC(=O)C[C@@H]1C[C@H](c2ccc(C(=N)N)cc2)N(C)O1)NS(=O)(=O)c1c(C)noc1C` (relative stereo) [Example 37, Cis-3-[2-[2-methyl-3-[4-(aminoiminomethyl)phenyl]-isoxazolidin-5-yl]acetyl]amino-N-(3,5-dimethyloxazol-4-ylsulfonyl)-L-alanine methyl ester monotrifluoroacetic], the IC50 is reported as less than 10 µM. Work on `COC(=O)[C@H](CNC(=O)CC1CC(c2ccc(C(=N)N)cc2)N(C)O1)NS(=O)(=O)c1cccc(C)c1` (stereo partly drawn) [Example 1, Cis-3-[2-[2-methyl-3-[4-(aminoiminomethyl)phenyl]-isoxazolidin-5-yl]-acetyl]amino-N-(3-methylphenylsulfonyl)-L-alanine Methyl Ester Monotrifluoroacetic Acid] yielded an IC50 of less than 10 µM. `COC(=O)[C@H](CNC(=O)CC1CC(c2ccc(C(=N)N)cc2)N(C)O1)NS(=O)(=O)c1cccc(C)c1` (stereo partly drawn) [Example 3, Trans-3-[2-[2-methyl-3-[4-(aminoiminomethyl)phenyl]-isoxazolidin-5-yl]acetyl]amino-N-(3-methylphenylsulfonyl)-L-alanine methyl ester monotrifluoroacetic acid] showed an IC50 of less than 10 µM. In the case of `COC(=O)[C@H](CNC(=O)CC1CC(c2ccc(C(=N)N)cc2)N(C(C)C)O1)NS(=O)(=O)c1cccc(C)c1` (stereo partly drawn) [Example 28, Cis-3-[2-[2-isopropyl-3-[4-(aminoiminomethyl)phenyl]-isoxazolidin-5-yl]acetyl]amino-N-(3-methylphenylsulfonyl)-L-alanine methyl ester monotrifluoroacetic acid], the IC50 is reported as less than 10 µM. `COC(=O)[C@H](CNC(=O)CC1CC(c2ccc(C(=N)N)cc2)N(C)O1)NS(=O)(=O)c1ccccc1C` (stereo partly drawn) [Example 32, Cis-3-[2-[2-methyl-3-[4-(aminoiminomethyl)phenyl]-isoxazolidin-5-yl]acetyl]amino-N-(2-methylphenylsulfonyl)-L-alanine methyl ester monotrifluoroacetic acid] gave an IC50 of less than 10 µM. `CCCCOC(=O)N[C@@H](CNC(=O)CC1CC(c2ccc(C(=N)N)cc2)N(C)O1)C(=O)OC` (stereo partly drawn) [Example 68, Cis-3-[2-[2-methyl-3-[4-(aminoiminomethyl)phenyl]-isoxazolidin-5-yl]acetyl]amino-N-n-butyloxycarbonyl-L-alanine methyl ester monotrifluoroacetic acid] showed an IC50 of less than 10 µM. `COC(=O)[C@H](CNC(=O)CC1CC(c2ccc(C(=N)N)cc2)N(c2ccccc2)O1)NS(=O)(=O)c1cccc(C)c1` (stereo partly drawn) [Example 70, Cis-3-[2-[2-phenyl-3-[4-(aminoiminomethyl)phenyl]-isoxazolidin-5-yl]acetyl]amino-N-(3-methylphenylsulfonyl)-L-alanine methyl ester monotrifluoroacetic acid] showed an IC50 of less than 10 µM. With `COC(=O)[C@H](CNC(=O)CC1CC(c2ccc(C(=N)N)cc2)N(C)C(=O)O1)NS(=O)(=O)c1cccc(C)c1` (stereo partly drawn) [Example 300, Cis-3-[[[4-[4-(aminoiminomethyl)phenyl]tetrahydro-3-methyl-2-oxo-2H-1,3-oxazin-6-yl]acetyl]amino]-N-[(3-methylphenyl)sulfonyl]-L-alanine methyl ester monotrifluoroacetic acid] the IC50 was less than 10 µM. `COC(=O)[C@H](CNC(=O)CC1CC(c2ccc(C(=N)N)cc2)N(Cc2ccccc2)C(=O)O1)NS(=O)(=O)c1cccc(C)c1` (stereo partly drawn) [Example 321, Cis-3-[[[4-[4-(aminoiminomethyl)phenyl]tetrahydro-3-benzyl-2-oxo-2H-1,3-oxazin-6-yl]acetyl]amino]-N-[(3-methylphenyl)sulfonyl]-L-alanine methyl ester monotrifluoroacetic acid] showed an IC50 of less than 10 µM. `COC(=O)[C@H](CNC(=O)CC1CC(c2ccc(C(=N)N)cc2)N(C)C(=O)O1)NS(=O)(=O)c1ccccc1C` (stereo partly drawn) [Example 327, Cis-3-[[[4-[4-(aminoiminomethyl)phenyl]tetrahydro-3-methyl-2-oxo-2H-1,3-oxazin-6-yl]acetyl]amino]-N-[(2-methylphenyl)sulfonyl]-L-alanine methyl ester monotrifluoroacetic acid] gave an IC50 of less than 10 µM. In the case of `COC(=O)[C@H](CNC(=O)CC1CC(c2ccc(C(=N)N)cc2)N(C)C(=O)O1)NS(=O)(=O)c1c(C)noc1C` (stereo partly drawn) [Example 335, Cis-3-[[[4-[4-(aminoiminomethyl)phenyl]tetrahydro-3-methyl-2-oxo-2H-1,3-oxazin-6-yl]acetyl]amino]-N-[(3,5dimethylisoxazol-4-yl)sulfonyl]-L-alanine methyl ester monotrifluoroacetic acid], the IC50 is reported as less than 10 µM. For `CCCCOC(=O)N[C@@H](CNC(=O)CC1CC(c2ccc(C(=N)N)cc2)N(C)C(=O)O1)C(=O)OC` (stereo partly drawn) [Example 355, Cis-3-[[[4-[4-(aminoiminomethyl)phenyl]tetrahydro-3-methyl-2-oxo-2H-1,3-oxazin-6-yl]acetyl]amino]-N-(n-butyloxycarbonyl)-L-alanine methyl ester monotrifluoroacetic acid], the IC50 was less than 10 µM.
